Results reported in ChEMBL document CHEMBL1201862, “PubChem BioAssay data set” (2004).
“And” between values parts separate entries of the source, which are not always exact repeats. Equal values may be shown once.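 Tested at 5 concentrations; 48 h exposure; 96-well plates; endpoints linearly interpolated, else capped at highest concentration. GI50: concentration for 50% inhibition of growth.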 The source made the active and inactive calls. Rule as the data show it: active = GI50 up to about 1.1 µM and inactive = higher.

What was measured:
Assay in all cases: inhibition of tumour cell growth, NCI panel, 48 h
[1] = system: 786-0
[2] = system: A498
[3] = system: A549
[4] = system: ACHN
[5] = system: CAKI-1
[6] = system: CCRF-CEM
[7] = system: COLO 205
[8] = system: DU-145
[9] = system: EKVX
[10] = system: HCC 2998
[11] = system: HCT-116
[12] = system: HCT-15
[13] = system: HL-60
[14] = system: HOP-62
[15] = system: HOP-92
[16] = system: HT-29
[17] = system: Hs-578T
[18] = system: IGROV-1
[19] = system: K562
[20] = system: KM12
[21] = system: LOX IMVI
[22] = system: M14
[23] = system: MCF7
[24] = system: MDA-MB-231
[25] = system: MDA-MB-435
[26] = system: MDA-N
[27] = system: MOLT-4
[28] = system: Malme-3M
[29] = system: NCI-H226
[30] = system: NCI-H23
[31] = system: NCI-H460
[32] = system: NCI-H522
[33] = system: NCI/ADR-RES
[34] = system: OVCAR-3
[35] = system: OVCAR-4
[36] = system: OVCAR-5
[37] = system: OVCAR-8
[38] = system: PC-3
[39] = system: RXF 393
[40] = system: SF-268
[41] = system: SF-295
[42] = system: SF-539
[43] = system: SK-MEL-28
[44] = system: SK-MEL-2
[45] = system: SK-MEL-5
[46] = system: SK-OV-3
[47] = system: SN12C
[48] = system: SNB-19
[49] = system: SNB-75
[50] = system: SR
[51] = system: SW-620
[52] = system: T47D
[53] = system: TK-10
[54] = system: U-251
[55] = system: UACC-257
[56] = system: UACC-62
[57] = system: RPMI-8226
[58] = system: UO-31

For O=c1[nH]c(=O)n(C2OC(CO)C(O)C2O)cc1Oc1ccccc1 (stereo unspecified), the GI50 [1] was > 100 µM (inactive), the GI50 [2] was > 100 µM (inactive) and the GI50 [3] was > 100 µM (inactive). The GI50 [4] was > 100 µM (inactive), the GI50 [5] was > 100 µM (inactive) and the GI50 [6] was > 100 µM (inactive). For the same compound, the GI50 [7] was > 100 µM (inactive), the GI50 [8] was > 100 µM (inactive) and the GI50 [9] was > 100 µM (inactive). For the same compound, the GI50 [10] was > 100 µM (inactive), the GI50 [11] was > 100 µM (inactive) and the GI50 [12] was > 100 µM. The GI50 [13] was > 100 µM (inactive), the GI50 [14] was > 100 µM (inactive) and the GI50 [15] was > 100 µM (inactive). For the same compound, the GI50 [16] was > 100 µM (inactive), the GI50 [17] was 98.9 µM (inactive) and the GI50 [18] was > 100 µM (inactive). For the same compound, the GI50 [19] was > 100 µM (inactive), the GI50 [20] was > 100 µM (inactive) and the GI50 [21] was > 100 µM (inactive). The GI50 [22] was > 100 µM (inactive), the GI50 [23] was > 100 µM (inactive) and the GI50 [24] was > 100 µM (inactive). For the same compound, the GI50 [25] was > 100 µM (inactive), the GI50 [26] was > 100 µM (inactive) and the GI50 [27] was > 100 µM (inactive). For the same compound, the GI50 [28] was > 100 µM (inactive), the GI50 [29] was > 100 µM (inactive) and the GI50 [30] was > 100 µM (inactive). For the same compound, the GI50 [31] was > 100 µM (inactive), the GI50 [32] was > 100 µM (inactive) and the GI50 [33] was > 100 µM (inactive). For the same compound, the GI50 [34] was > 100 µM (inactive), the GI50 [35] was > 100 µM (inactive) and the GI50 [36] was > 100 µM (inactive). For the same compound, the GI50 [37] was > 100 µM (inactive), the GI50 [38] was > 100 µM (inactive) and the GI50 [39] was > 100 µM (inactive). The GI50 [40] was > 100 µM (inactive), the GI50 [41] was > 100 µM (inactive) and the GI50 [42] was > 100 µM (inactive). The GI50 [43] was > 100 µM (inactive), the GI50 [44] was > 100 µM (inactive) and the GI50 [45] was > 100 µM (inactive). The GI50 [46] was > 100 µM (inactive), the GI50 [47] was > 100 µM (inactive) and the GI50 [48] was > 100 µM (inactive). The GI50 [49] was > 100 µM (inactive), the GI50 [50] was > 100 µM (inactive) and the GI50 [51] was > 100 µM (inactive). For the same compound, the GI50 [52] was > 100 µM (inactive), the GI50 [53] was > 100 µM (inactive) and the GI50 [54] was > 100 µM (inactive). For the same compound, the GI50 [55] was > 100 µM (inactive) and the GI50 [56] was > 100 µM (inactive).

In the case of CCCCCCCCCCCCCCCCP(=O)(O)OP(=O)(O)OCC1OC(n2ccc(N)nc2=O)C(O)C1O (stereo unspecified), the GI50 [2] is reported as 8.91 µM (inactive), the GI50 [8] is reported as 25.8 µM (inactive) and the GI50 [9] is reported as > 100 µM (inactive). The GI50 [20] was 31.8 µM (inactive) and 38.4 µM (inactive), the GI50 [34] was 60 µM (inactive) and the GI50 [36] was 18.5 µM (inactive) and 21.7 µM (inactive). The GI50 [42] was 14.3 µM (inactive) and 22.9 µM (inactive), the GI50 [43] was 32.4 µM (inactive) and 47.5 µM (inactive) and the GI50 [44] was > 100 µM (inactive) and 76.7 µM (inactive). The GI50 [49] was 16.9 µM (inactive) and 32.9 µM (inactive), the GI50 [50] was 0.323 µM (active) and the GI50 [52] was > 90.2 µM (inactive). For the same compound, the GI50 [53] was 29.4 µM (inactive) and 41 µM (inactive).

For c1csc(-c2nnc(C34CC5CC(CC(C5)C3)C4)o2)c1, the GI50 [1] was 24.7 µM (inactive), the GI50 [2] was 16.9 µM (inactive) and the GI50 [3] was 39.4 µM (inactive). The GI50 [4] was 33.3 µM (inactive), the GI50 [5] was 87.1 µM (inactive) and the GI50 [6] was 21.7 µM (inactive). The GI50 [7] was 17.5 µM (inactive), the GI50 [8] was 44.2 µM (inactive) and the GI50 [9] was 44.1 µM (inactive). For the same compound, the GI50 [10] was 35.4 µM (inactive), the GI50 [11] was 32.2 µM (inactive) and the GI50 [12] was 38.1 µM. For the same compound, the GI50 [13] was 15.1 µM (inactive), the GI50 [14] was 29.4 µM (inactive) and the GI50 [15] was 29.1 µM (inactive). The GI50 [16] was 19 µM (inactive), the GI50 [17] was 31.6 µM (inactive) and the GI50 [18] was 31.9 µM (inactive). For the same compound, the GI50 [19] was 34 µM (inactive), the GI50 [20] was 52 µM (inactive) and the GI50 [21] was 23.6 µM (inactive). The GI50 [22] was 37.2 µM (inactive), the GI50 [23] was < 0.01 µM (active) and the GI50 [24] was 17.7 µM (inactive). For the same compound, the GI50 [25] was 36.5 µM (inactive), the GI50 [26] was 37.7 µM (inactive) and the GI50 [27] was 24.7 µM (inactive). The GI50 [28] was 16.4 µM (inactive), the GI50 [29] was 29.9 µM (inactive) and the GI50 [30] was 42.7 µM (inactive). For the same compound, the GI50 [31] was 39.9 µM (inactive), the GI50 [32] was 36.8 µM (inactive) and the GI50 [33] was 21.7 µM (inactive). For the same compound, the GI50 [34] was 13.6 µM (inactive), the GI50 [35] was 34.2 µM (inactive) and the GI50 [36] was 32.4 µM (inactive). For the same compound, the GI50 [37] was 37.6 µM (inactive), the GI50 [38] was 28 µM (inactive) and the GI50 [57] was 36.2 µM (inactive). The GI50 [39] was 23.3 µM (inactive), the GI50 [40] was 46.5 µM (inactive) and the GI50 [41] was 42.1 µM (inactive). The GI50 [42] was 19 µM (inactive), the GI50 [43] was 40.6 µM (inactive) and the GI50 [44] was 24.5 µM (inactive). The GI50 [45] was 17.1 µM (inactive), the GI50 [46] was 53.1 µM (inactive) and the GI50 [47] was 38 µM (inactive). For the same compound, the GI50 [48] was 51.6 µM (inactive), the GI50 [49] was 32.5 µM (inactive) and the GI50 [50] was 27.7 µM (inactive). For the same compound, the GI50 [51] was 45.8 µM (inactive), the GI50 [52] was 26.9 µM (inactive) and the GI50 [53] was 47.4 µM (inactive). For the same compound, the GI50 [54] was 39.6 µM (inactive), the GI50 [56] was 36.2 µM (inactive) and the GI50 [58] was 3.96 µM (inactive).
